Measured values published in patent publication US12440706B2, “Conjugated chemical inducers of degradation and methods of use” (Genentech, Inc., priority 2018, dated 2025).

These molecules were tested against T1, ERα (Homo sapiens, UniProt P03372) (assay: Degradation of ERα by Ab-CIDEs (Example 3, FIGS. 1-3, Tables 2-4)). Conditions: ERα degradation by Ab-CIDE.
T1 construct: ERα degradation percent activity in MCF7 neo/HER2 cells
T1 sequence (P03372 1-595): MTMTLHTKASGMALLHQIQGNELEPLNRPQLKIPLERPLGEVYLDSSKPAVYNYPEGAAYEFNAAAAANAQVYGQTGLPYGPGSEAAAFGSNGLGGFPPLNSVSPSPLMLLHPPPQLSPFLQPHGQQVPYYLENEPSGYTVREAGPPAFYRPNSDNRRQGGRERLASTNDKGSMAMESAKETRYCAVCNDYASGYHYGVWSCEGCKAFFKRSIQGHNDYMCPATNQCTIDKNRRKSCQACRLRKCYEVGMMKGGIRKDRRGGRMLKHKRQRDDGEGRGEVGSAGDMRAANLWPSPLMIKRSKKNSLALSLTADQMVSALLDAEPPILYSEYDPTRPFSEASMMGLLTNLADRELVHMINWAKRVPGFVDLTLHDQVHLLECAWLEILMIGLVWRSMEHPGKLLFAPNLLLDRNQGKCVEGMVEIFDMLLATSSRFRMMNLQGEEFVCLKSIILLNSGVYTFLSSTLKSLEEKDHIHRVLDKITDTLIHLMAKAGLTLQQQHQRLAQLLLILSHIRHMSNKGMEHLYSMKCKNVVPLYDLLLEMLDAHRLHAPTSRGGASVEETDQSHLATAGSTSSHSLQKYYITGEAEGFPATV
Format: cell-based

| Compound | DC50 [nM] | Sinf [%] |
| --- | --- | --- |
| CC/C(=C(/c1ccc(OCCN(C)C(=O)CCOCCOCCC(=O)N[C@H](C(=O)N2C[C@H](OC(=O)OCC(C)(C)SS(C)(=O)=O)C[C@H]2C(=O)NCc2ccc(-c3scnc3C)cc2)C(C)(C)C)cc1)c1ccc(OP(=O)(O)O)cc1)c1ccccc1 [Thio Hu Anti- CD22 10F4v3 high DAR [LC:K149C HC:L174C HC:Y37] | 1270 | −92 |
| CC/C(=C(\c1ccc(O)cc1)c1ccc(OCCN(C)C(=O)CCOCCOCCC(=O)N[C@H](C(=O)N2C[C@H](OC(=O)OCC(C)(C)SS(C)(=O)=O)C[C@H]2C(=O)NCc2ccc(-c3scnc3C)cc2)C(C)(C)C)cc1)c1ccccc1 [Thio Hu Anti- CD22 10F4v3 high DAR [LC:K149C HC:L174C Y373C]] | 304 | −92 |
| CC/C(=C(/c1ccc(OCCN(C)C(=O)CCOCCOCCC(=O)N[C@H](C(=O)N2C[C@H](OC(=O)OCC(C)(C)SS(C)(=O)=O)C[C@H]2C(=O)NCc2ccc(-c3scnc3C)cc2)C(C)(C)C)cc1)c1ccc(OP(=O)(O)O)cc1)c1ccccc1 [Thio Hu Anti- Her2 7C2 high DAR [LC:K149C HC:L174C HC:Y373C]] | 47.4 | −94 |
| CC/C(=C(\c1ccc(O)cc1)c1ccc(OCCN(C)C(=O)CCOCCOCCC(=O)N[C@H](C(=O)N2C[C@H](OC(=O)OCC(C)(C)SS(C)(=O)=O)C[C@H]2C(=O)NCc2ccc(-c3scnc3C)cc2)C(C)(C)C)cc1)c1ccccc1 [Thio Hu Anti- Her2 7C2 high DAR [LC:K149C HC:L174C HC:Y373C]] | 27.9 | −93 |

The molecules below were run on EOL-1 AML xenografts (assay: EOL-1 AML subcutaneous xenograft efficacy). Conditions: single IV dose 0.4 mg/kg.
Format: in vivo, mice
Method: Two human AML cell lines, EOL-1 (DSMZ; Braunschweig, Germany) and HL-60 (ATCC, Manassas, VA) were used to establish subcutaneous xenograft models for efficacy evaluation of the degrader-antibody conjugates. Tumor cells (5 million cells suspended in 0.1 mL of Hanks' Balanced Salt Solution supplemented with Matrigel) were inoculated to the flanks of female CB-17 Fox Chase SCID mice (Charles River Lab, Hollister, CA). When mean tumor size reached the desired volume (200-300 mm^3), animals were randomized into groups of n=5, each with similar tumor volume distributions, and each animal received an intraperitoneal dose of a mouse IgG2a anti-ragweed antibody in excess amount (30 mg/kg; to block Fcγ receptors frequently expressed on the surface of AML cells). Four hours later, vehicle or degrader-antibody conjugates were administered to the animals via single intravenous (IV) bolus injections through the tail vein. Tumors were measured in two dimensions (length and width) using calipers and the tumor volume was calculated using the formula: Tumor size (mm^3)=0.5×(length×width×width). The results were plotted as mean tumor volume+/−SEM of each group over time. Treatment groups were not blinded during tumor measurement.

| Compound | efficacy in the EOL-1 model |
| --- | --- |
| Cc1ncsc1-c1ccc(CNC(=O)[C@@H]2C[C@@H](O)CN2C(=O)[C@@H](NC(=O)CCCCCCCCCCNC(=O)c2cc3c(cc2CS(C)(=O)=O)-c2cn(C)c(=O)c4[nH]cc(c24)CN3c2ncc(F)cc2F)C(C)(C)C)cc1 [unconjugated CIDE] | no efficacy |
